In publication PMC12388884, “Discovery of Small-Molecule PD-L1 Inhibitors via Virtual Screening and Their Immune-Mediated Anti-Tumor Effects” (Pharmaceuticals, 2025):
Numbered stars: 1 amine (or outer) side, 2 acyl side, 3 side chain; on linkers, the order of the positions; unused ones are H or OH. Bridge positions count the residues as written; N and C are the ends. Square brackets hold non-standard residues; d marks the D form. Peptide text beside a SMILES is read from it. * marks the point of attachment. pTerphenylCO(4''-OnC5H11) = CCCCCOc1ccc(-c2ccc(-c3ccc(C(=O)*)cc3)cc2)cc1; Orn(4R-OH,5R-OH) = O=C([C@H](C[C@@H](O)[C@@H](O)N[*:3])N[*:1])[*:2]; hTyr(3S-OH,4S-OH) = N[C@H](C(=O)O)[C@H](O)[C@@H](O)c1ccc(O)cc1; Pro(3S-OH,4S-Me) = C[C@H]1CN[C@H](C(=O)O)[C@H]1O; Hyp = O=C(O)[C@@H]1C[C@@H](O)CN1

Biological target: T1, PD-L1 (Homo sapiens, UniProt Q9NZQ7)
T1 construct: gene CD274
T1 sequence (Q9NZQ7 19-290): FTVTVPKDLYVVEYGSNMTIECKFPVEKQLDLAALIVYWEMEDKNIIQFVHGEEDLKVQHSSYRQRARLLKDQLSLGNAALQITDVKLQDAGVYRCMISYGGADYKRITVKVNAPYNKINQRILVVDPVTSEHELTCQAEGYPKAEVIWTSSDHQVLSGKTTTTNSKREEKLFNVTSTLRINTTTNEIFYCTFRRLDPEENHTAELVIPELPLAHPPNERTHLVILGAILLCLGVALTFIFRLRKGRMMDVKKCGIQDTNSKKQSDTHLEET
Experiment: bio-layer interferometry (BLI), immobilized recombinant human PD-L1, […] global kinetic fit
Format: binding

CCCCCOc1ccc(-c2ccc(-c3ccc(C(=O)N[C@H]4C[C@@H](O)[C@@H](O)NC(=O)[C@@H]5[C@@H](O)[C@@H](C)CN5C(=O)[C@H]([C@@H](C)O)NC(=O)[C@H]([C@H](O)[C@@H](O)c5ccc(O)cc5)NC(=O)[C@@H]5C[C@@H](O)CN5C(=O)[C@H]([C@@H](C)O)NC4=O)cc3)cc2)cc1 [anidulafungin] ({pTerphenylCO(4''-OnC5H11)}-[Orn(4R-OH,5R-OH)]T[Hyp][hTyr(3S-OH,4S-OH)]T[Pro(3S-OH,4S-Me)]; lactam 1-C) showed a Kd of 76.9 µM.
